Values after ≈ are worked out from the molar mass of the structure shown. Bounds are passed on as bounds.

Holding throughout (format): cell-based
The subject of test [1] is H. influenzae. Put plainly: MIC by agar plate dilution against clinical isolates of H. influenzae. The settings on record: 4 strains of H. influenzae (clinical isolates), 18 to 24 hr, 35° C; for MIC: Haemophilus influenzae, read-out: MIC or MIC range, H. Influenzae. The method, then:
(§1) Minimal Inhibitory concentrations (MIC) of inhibitors against clinical isolates of S. pneumoniae, H. influenzae and M. catarrhalis obtained from the Public Health and Clinical Microbiology Laboratory, Addenbrooke's Hospital, Hills Road, Cambridge CB2 2QW, UK, were determined by a standard agar plate dilution method following recommended in British Society for Antimicrobial Chemotherapy Working Party. 1991. “A guide to sensitivity testing British Society for Antimicrobial Chemotherapy, London, United Kingdom”. Briefly Iso-Sensitest agar (pH 7.2: Oxoid, United Kingdom) was employed supplemented with 5% horse blood (Oxoid) and 20 μg of NAD (Sigma) per ml to support growth of fastidious bacteria. The inoculum used was approximately 10^4 colony forming units of each isolate contained in a volume of 1 μl. Plates were incubated 18 to 24 hr in air, or for fastidious bacteria an atmosphere enriched with 4–6% carbon dioxide at 35° C. The MIC was determined as the lowest concentration of an antimicrobial tested that inhibited growth of the inoculum, disregarding a single persisting colony or faint haze caused by the inoculation.
(§2) The compounds of the Examples were are antibacterially active in the above assays, The following table states the MICs or MIC ranges of the tested compounds against 6 strains of S. pneumoniae, 4 strains of H. influenzae and 3 strains of M. catarrhalis.

Test [2] concerns S. pneumoniae. The experiment in a line: MIC by agar plate dilution against clinical isolates of S. pneumoniae. The settings on record: 6 strains of S. pneumoniae (clinical isolates), 18 to 24 hr, 35° C; for MIC: Streptococcus pneumoniae, read-out: MIC or MIC range, S. pneumoniae. The method, then:
as §1, §2

Test [3] deals with M. catarrhalis. Put plainly: MIC by agar plate dilution against clinical isolates of M. catarrhalis. The settings on record: 3 strains of M. catarrhalis (clinical isolates), 18 to 24 hr, 35° C; for MIC: Moraxella catarrhalis, read-out: MIC or MIC range, M. catarrhalis. The method, then:
as §1, §2

Regarding `O=CN(O)C[C@@H](CC1CCCC1)C(=O)N1CCCN1C(=O)c1ccccc1` [Example 27, N-{(2R)-Cyclopentylmethyl-3-[2-benzoyl-pyrazolidin-1-yl]-3-oxo-propyl}-N-hydroxyformamide], the MIC is 2 to 16 µg/mL (≈ 5.36 to 42.8 µM) in test [1], 16 µg/mL (≈ 42.8 µM) in test [2] and 0.06 µg/mL (≈ 0.161 µM) in test [3].

Regarding `COCC(=O)N1CCCN1C(=O)[C@H](CC1CCCC1)CN(O)C=O` [Example 26, N-{(2R)-Cyclopentylmethyl-3-[2-(2-methoxyacetyl)-pyrazolidin-1-yl]-3-oxo-propyl}N-hydroxyformamide], the MIC in test [1] was 1 to 8 µg/mL (≈ 2.93 to 23.4 µM); in test [2], 8 µg/mL (≈ 23.4 µM); in test [3], 0.125 µg/mL (≈ 0.366 µM).

In the case of `O=CN(O)C[C@@H](CC1CCCC1)C(=O)N1CCCCN1C(=O)c1ccc(C(F)(F)F)cc1` [Example 4, N-{(2R)-Cyclopentylmethyl-3-[2-(4-trifluoromethylbenzoyl)-tetrahydropyridazin-1-yl]-3-oxo-propyl}-N-hydroxyformamide], the results for the MIC in test [2] and in test [3] were 0.5 to 4 µg/mL (≈ 1.1 to 8.78 µM) and 0.5 µg/mL (≈ 1.1 µM), respectively.

Consider `COc1cccc(NC(=O)N2CCCCN2C(=O)[C@H](CC2CCCC2)CN(O)C=O)c1` [Example 15, 2-[(2R)-Cyclopentylmethyl-3-(formylhydroxyamino)-propionyl]-tetrahydropyridazine-1-Carboxylic acid (3-methoxyphenyl)amide], for which the MIC is 0.125 to 4 µg/mL (≈ 0.289 to 9.25 µM) in test [1], 2 to 4 µg/mL (≈ 4.62 to 9.25 µM) in test [2] and less than 0.125 µg/mL in test [3].

Consider `CN(C(=O)N1CCCCN1C(=O)[C@H](CC1CCCC1)CN(O)C=O)c1ccccc1` [Example 21, 2-[(2R)-Cyclopentylmethyl-3-(formylhydroxyamino)-propionyl]-tetrahydropyridazine-1-Carboxylic acid methylphenylamide], for which, in test [1], the “MIC or MIC range, H. Influenzae” value lay in the range of 4 to 16 µg/mL. Also, the “MIC or MIC range, S. pneumoniae” value in test [2] was in the range of 1 to 4 µg/mL. For the same molecule, the “MIC or MIC range, M. catarrhalis” value in test [3] is 0.125 µg/mL (≈ 0.3 µM).

With `O=CN(O)C[C@@H](CC1CCCC1)C(=O)N1CCCCN1C(=O)Nc1cc(C(F)(F)F)cc(C(F)(F)F)c1` [Example 13, 2-[(2R)-Cyclopentylmethyl-3-(formylhydroxyamino)-propionyl]-tetrahydropyridazine-1-Carboxylic acid (3,5-bis-(trifluoromethyl)phenyl)amide], the “MIC or MIC range, S. pneumoniae” value in test [2] fell in the range of 8 to 16 µg/mL. The “MIC or MIC range, M. catarrhalis” value in test [3] was 2 µg/mL (≈ 3.71 µM).

In the case of `O=C(C[C@@H](CC1CCCC1)C(=O)N1CCCCN1C(=O)Nc1ccccc1)NO` [Example 45, 2-[(2R)-Cyclopentylmethyl-3-hydroxycarbamoylpropionyl]-tetrahydropyridazine-1-Carboxylic acid phenylamide], in test [1], the “MIC or MIC range, H. Influenzae” value fell in the range of 1 to 4 µg/mL. In test [2], the “MIC or MIC range, S. pneumoniae” value lay within 4 to 8 µg/mL.

As for `O=CN(O)C[C@@H](CC1CCCC1)C(=O)N1CCCCN1C(=O)c1ccccc1` [Example 3, N-{(2R)-Cyclopentylmethyl-3-[2-benzoyl-tetrahydropyridazin-1-yl]-3-oxo-propyl}-N-hydroxyformamide], the results for the MIC in test [1], in test [2] and in test [3] were 1 to 4 µg/mL (≈ 2.58 to 10.3 µM), 0.5 to 2 µg/mL (≈ 1.29 to 5.16 µM) and 0.125 µg/mL (≈ 0.323 µM), respectively.

Regarding `O=CN(O)C[C@@H](CC1CCCC1)C(=O)N1CCCN1C(=O)Cc1ccccc1` [Example 29, N-{(2R)-Cyclopentylmethyl-3-[2-phenylacetyl-pyrazolidin-1-yl]-3-oxo-propyl}-N-hydroxyformamide], the figures for the MIC in test [1], in test [2] and in test [3] were 2 to 16 µg/mL (≈ 5.16 to 41.3 µM), 4 to 8 µg/mL (≈ 10.3 to 20.6 µM) and 0.06 µg/mL (≈ 0.155 µM), respectively.

For the molecule `O=CN(O)C[C@@H](CC1CCCC1)C(=O)N1CCCCN1C(=O)Nc1ccccc1` [Example 14, 2-[(2R)-Cyclopentylmethyl-3-(formylhydroxyamino)-propionyl]-tetrahydropyridazine-1-Carboxylic acid phenylamide], the MIC in test [1] was 0.125 to 4 µg/mL (≈ 0.311 to 9.94 µM); in test [2], 2 to 4 µg/mL (≈ 4.97 to 9.94 µM); in test [3], less than 0.125 µg/mL.

Regarding `CC(C)(C)OC(=O)N1CCCCN1C(=O)[C@H](CC1CCCC1)CN(O)C=O` [Example 24, 2-[(2R)-Cyclopentylmethyl-3-(formylhydroxyamino)-propionyl]-tetrahydropyridazine-1-Carboxylic acid tert-butyl ester], the MIC is 1 to 4 µg/mL (≈ 2.61 to 10.4 µM) in test [1], 4 to 16 µg/mL (≈ 10.4 to 41.7 µM) in test [2] and less than 0.125 µg/mL in test [3].

Take `O=CN(O)C[C@@H](CC1CCCC1)C(=O)N1CCCCN1C(=O)Cc1ccccc1` [Example 11, N-{(2R)-Cyclopentylmethyl-3-[2-phenylacetyl-tetrahydropyridazin-1-yl]-3-oxo-propyl}-N-hydroxyformamide]: the MIC in test [1] is 0.25 to 2 µg/mL (≈ 0.623 to 4.98 µM); in test [2], 0.5 to 4 µg/mL (≈ 1.25 to 9.96 µM); in test [3] it was 0.25 µg/mL (≈ 0.623 µM).

In the case of `O=CN(O)C[C@@H](CC1CCCC1)C(=O)N1CCCCN1C(=O)C1CCCCC1` [Example 6, N-{(2R)-Cyclopentylmethyl-3-[2-Cyclohexanecarbonyl-tetrahydropyridazin-1-yl]-3-oxo-propyl}-N-hydroxyformamide], the results for the MIC in test [1], in test [2] and in test [3] were 4 to 8 µg/mL (≈ 10.2 to 20.3 µM), 0.5 to 2 µg/mL (≈ 1.27 to 5.08 µM) and 0.06 µg/mL (≈ 0.152 µM), respectively.

Consider `O=CN(O)C[C@@H](CC1CCCC1)C(=O)N1CCCN1C(=O)Nc1ccc(C(F)(F)F)cc1` [Example 42, 2-[(2R)-Cyclopentylmethyl-3-(formylhydroxyamino)-propionyl]-pyrazolidine-1-Carboxylic acid (4-trifluoromethylphenyl)amide], for which the MIC in test [1] and in test [2] was 2 to 8 µg/mL (≈ 4.38 to 17.5 µM) each time.

With `COc1ccccc1NC(=O)N1CCCN1C(=O)[C@H](CC1CCCC1)CN(O)C=O` [Example 38, 2-[(2R)-Cyclopentylmethyl-3-(formylhydroxyamino)-propionyl]-pyrazolidine-1-Carboxylic acid (2-methoxyphenyl)amide], the “MIC or MIC range, H. Influenzae” value in test [1] fell in the range of 1 to 2 µg/mL. Besides, the “MIC or MIC range, S. pneumoniae” value in test [2] is 8 to 16 µg/mL. The “MIC or MIC range, M. catarrhalis” value in test [3] turned out to be 0.25 µg/mL (≈ 0.597 µM).

Take `O=CN(O)C[C@@H](CC1CCCC1)C(=O)N1CCCN1C(=O)c1ccc(C(F)(F)F)cc1` [Example 28, N-{(2R)-Cyclopentylmethyl-3-[2-(4-trifluoromethylbenzoyl)-pyrazolidin-1-yl]-3-oxo-propyl}-N-hydroxyformamide]: the MIC was 16 µg/mL (≈ 36.2 µM) in test [1], 0.5 to 4 µg/mL (≈ 1.13 to 9.06 µM) in test [2] and 0.06 µg/mL (≈ 0.136 µM) in test [3].

As for `O=CN(O)C[C@@H](CC1CCCC1)C(=O)N1CCCCN1C(=O)c1ccc2c(c1)OCO2` [Example 8, N-{(2R)-Cyclopentylmethyl-3-[2-(benzo[1,3]dioxole-5carbonyl)-tetrahydropyridazin-1-yl]-3-oxo-propyl}-N-hydroxyformamide], the MIC is 1 to 8 µg/mL (≈ 2.32 to 18.5 µM) in test [1], 0.5 to 4 µg/mL (≈ 1.16 to 9.27 µM) in test [2] and 0.5 µg/mL (≈ 1.16 µM) in test [3].

Consider `O=CN(O)C[C@@H](CC1CCCC1)C(=O)N1CCCN1C(=O)c1ccncc1` [Example 30, N-{(2R)-Cyclopentylmethyl-3-[2-(pyridine-4-Carbonyl)-pyrazolidin-1-yl]-3-oxo-propyl}-N-hydroxyformamide], for which the MIC in test [2] is 16 to 32 µg/mL (≈ 42.7 to 85.5 µM); in test [3], 0.125 µg/mL (≈ 0.334 µM).

As to `O=CN(O)C[C@@H](CC1CCCC1)C(=O)N1CCCCN1C(=O)N1CCC(Cc2ccccc2)CC1` [Example 22, N-{(2R)-Cyclopentylmethyl-3-[2-(4-benzylpiperidine-1-Carbonyl)-tetrahydropyridazin-1-yl]-3-oxo-propyl}-N-hydroxyformamide], the results for the MIC in test [2] and in test [3] were 4 to 16 µg/mL (≈ 8.25 to 33 µM) and 2 µg/mL (≈ 4.13 µM), respectively.

With `O=CN(O)C[C@@H](CC1CCCC1)C(=O)N1CCCCN1C(=O)c1ccncc1` [Example 5, N-{(2R)-Cyclopentylmethyl-3-[2-(pyridine-4-Carbonyl)-tetrahydropyridazin-1-yl]-3-oxo-propyl}-N-hydroxyformamide], the values for the MIC in test [2] and in test [3] were 2 to 16 µg/mL (≈ 5.15 to 41.2 µM) and 0.25 µg/mL (≈ 0.644 µM), respectively.

Turning to `COc1ccc(C(=O)N2CCCCN2C(=O)[C@H](CC2CCCC2)CN(O)C=O)cc1` [Example 7, N-{(2R)-Cyclopentylmethyl-3-[2-(4-methoxybenzoyl)-tetrahydropyridazin-1-yl]-3-oxo-propyl}-N-hydroxyformamide], the values for the MIC in test [2] and in test [3] were 0.5 to 4 µg/mL (≈ 1.2 to 9.58 µM) and 0.5 µg/mL (≈ 1.2 µM), respectively.

Take `O=CN(O)C[C@@H](CC1CCCC1)C(=O)N1CCCN1C(=O)c1ccoc1` [Example 37, N-{(2R)-Cyclopentylmethyl-3-[2-(furan-3-Carbonyl)-pyrazolidin-1-yl]-3-oxo-propyl}-N-hydroxyformamide]: the MIC came to 4 µg/mL (≈ 11 µM) in test [2] and 0.06 µg/mL (≈ 0.165 µM) in test [3].

As for `CN(C(=O)N1CCCN1C(=O)[C@H](CC1CCCC1)CN(O)C=O)c1ccccc1` [Example 43, 2-[(2R)-Cyclopentylmethyl-3-(formylhydroxyamino)-propionyl]-pyrazolidine-1-Carboxylic acid methylphenylamide], the “MIC or MIC range, H. Influenzae” value in test [1] is 16 to 32 µg/mL. In test [3], the “MIC or MIC range, M. catarrhalis” value stood at 8 µg/mL (≈ 19.9 µM).

The record behind these values is patent US7192953B2, “Antibacterial agents” (Vernalis (Oxford) Limited, priority 2002, dated 2007).
